Laboratory results from patent US8754242B2, “Herbicides” (Syngenta Crop Protection LLC, priority 2007, dated 2014).

What was measured:
Assay type in all cases: in vivo
[1] = system: Alopecurus myosuroides (ALOMY); experiment: Test Example 1 pre-emergence herbicidal activity; details: Alopecurus myosuroides, 480 h, rate 250 g/ha, evaluated 20 days later, read-out: Pre-emergence activity ALOMY (100=total damage to plant; 0=no damage to plant)
Procedure, shortened: (§1)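 Once sown in standard soil, pots received an aqueous spray of the formulated active ingredient, either after one day or after ten days of controlled glasshouse growth. Plants then grew under optimum greenhouse conditions. Herbicidal effect was assessed visually 15 (post-emergence) or 20 (pre-emergence) days later, 100 meaning total plant damage.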

Avena fatua (AVEFA) [2] = experiment: Test Example 1 pre-emergence herbicidal activity; details: Avena fatua, 480 h, rate 250 g/ha, evaluated 20 days later, read-out: Pre-emergence activity AVEFA (100=total damage to plant; 0=no damage to plant)
Procedure, shortened: as §1

[3] = system: Digitaria sanguinalis (DIGSA); experiment: Test Example 1 pre-emergence herbicidal activity; details: Digitaria sanguinalis, 480 h, rate 250 g/ha, evaluated 20 days later, read-out: Pre-emergence activity DIGSA (100=total damage to plant; 0=no damage to plant)
Procedure, shortened: as §1

[4] = system: Echinochloa crus-galli (ECHCG); experiment: Test Example 1 pre-emergence herbicidal activity; details: Echinochloa crus-galli, 480 h, rate 250 g/ha, evaluated 20 days later, read-out: Pre-emergence activity ECHCG (100=total damage to plant; 0=no damage to plant)
Procedure, shortened: as §1

Lolium perenne (LOLPE) [5] = experiment: Test Example 1 pre-emergence herbicidal activity; details: Lolium perenne, 480 h, rate 250 g/ha, evaluated 20 days later, read-out: Pre-emergence activity LOLPE (100=total damage to plant; 0=no damage to plant)
Procedure, shortened: as §1

Setaria faberi (SETFA) [6] = experiment: Test Example 1 pre-emergence herbicidal activity; details: Setaria faberi, 480 h, rate 250 g/ha, evaluated 20 days later, read-out: Pre-emergence activity SETFA (100=total damage to plant; 0=no damage to plant)
Procedure, shortened: as §1

[7] = system: Alopecurus myosuroides (ALOMY); experiment: Test Example 1 post-emergence herbicidal activity; details: 360 h, rate 125 g/ha, evaluated 15 days later, read-out: Post-emergence activity ALOMY (100=total damage to plant; 0=no damage to plant)
Procedure, shortened: as §1

Avena fatua (AVEFA) [8] = experiment: Test Example 1 post-emergence herbicidal activity; details: 360 h, rate 125 g/ha, evaluated 15 days later, read-out: Post-emergence activity AVEFA (100=total damage to plant; 0=no damage to plant)
Procedure, shortened: as §1

[9] = system: Digitaria sanguinalis (DIGSA); experiment: Test Example 1 post-emergence herbicidal activity; details: 360 h, rate 125 g/ha, evaluated 15 days later, read-out: Post-emergence activity DIGSA (100=total damage to plant; 0=no damage to plant)
Procedure, shortened: as §1

[10] = system: Echinochloa crus-galli (ECHCG); experiment: Test Example 1 post-emergence herbicidal activity; details: 360 h, rate 125 g/ha, evaluated 15 days later, read-out: Post-emergence activity ECHCG (100=total damage to plant; 0=no damage to plant)
Procedure, shortened: as §1

Lolium perenne (LOLPE) [11] = experiment: Test Example 1 post-emergence herbicidal activity; details: 360 h, rate 125 g/ha, evaluated 15 days later, read-out: Post-emergence activity LOLPE (100=total damage to plant; 0=no damage to plant)
Procedure, shortened: as §1

Setaria faberi (SETFA) [12] = experiment: Test Example 1 post-emergence herbicidal activity; details: 360 h, rate 125 g/ha, evaluated 15 days later, read-out: Post-emergence activity SETFA (100=total damage to plant; 0=no damage to plant)
Procedure, shortened: as §1

## CCc1cc(C)cc(CC)c1C1=C(O)[C@@H]2[C@@H]3O[C@@H](C[C@H]3c3ccc(C)cc3)[C@@H]2C1=O (racemic) [Example T180]
[1]
  pest or weed control at 250 g/ha: 30%
Avena fatua (AVEFA) [2]
  pest or weed control at 250 g/ha: 20%
[3]
  pest or weed control at 250 g/ha: 80%
[4]
  pest or weed control at 250 g/ha: 60%
Lolium perenne (LOLPE) [5]
  pest or weed control at 250 g/ha: 70%
Setaria faberi (SETFA) [6]
  pest or weed control at 250 g/ha: 40%
[7]
  pest or weed control at 125 g/ha: 90%
Avena fatua (AVEFA) [8]
  pest or weed control at 125 g/ha: 70%
[9]
  pest or weed control at 125 g/ha: 90%
[10]
  pest or weed control at 125 g/ha: 100%
Lolium perenne (LOLPE) [11]
  pest or weed control at 125 g/ha: 70%
Setaria faberi (SETFA) [12]
  pest or weed control at 125 g/ha: 100%

## CC[C@]12C=C[C@H](O1)[C@@H]1C(=O)C(c3c(C)cc(C)cc3C)=C(O)[C@@H]12 [Example T40]
[1]
  pest or weed control at 250 g/ha: 50%
Avena fatua (AVEFA) [2]
  pest or weed control at 250 g/ha: 60%
[3]
  pest or weed control at 250 g/ha: 60%
[4]
  pest or weed control at 250 g/ha: 40%
Lolium perenne (LOLPE) [5]
  pest or weed control at 250 g/ha: 60%
Setaria faberi (SETFA) [6]
  pest or weed control at 250 g/ha: 40%
[7]
  pest or weed control at 125 g/ha: 40%
Avena fatua (AVEFA) [8]
  pest or weed control at 125 g/ha: 30%
[9]
  pest or weed control at 125 g/ha: 70%
[10]
  pest or weed control at 125 g/ha: 70%
Lolium perenne (LOLPE) [11]
  pest or weed control at 125 g/ha: 30%
Setaria faberi (SETFA) [12]
  pest or weed control at 125 g/ha: 70%

## CCc1cc(C)cc(CC)c1C1=C(O)[C@@H]2[C@@H]3O[C@@H](C[C@H]3c3ccc(Cl)cc3)[C@@H]2C1=O [Example T155]
[1]
  pest or weed control at 250 g/ha: 60%
Avena fatua (AVEFA) [2]
  pest or weed control at 250 g/ha: 50%
[3]
  pest or weed control at 250 g/ha: 70%
[4]
  pest or weed control at 250 g/ha: 60%
Lolium perenne (LOLPE) [5]
  pest or weed control at 250 g/ha: 80%
Setaria faberi (SETFA) [6]
  pest or weed control at 250 g/ha: 60%
[7]
  pest or weed control at 125 g/ha: 90%
Avena fatua (AVEFA) [8]
  pest or weed control at 125 g/ha: 70%
[9]
  pest or weed control at 125 g/ha: 100%
[10]
  pest or weed control at 125 g/ha: 100%
Lolium perenne (LOLPE) [11]
  pest or weed control at 125 g/ha: 60%
Setaria faberi (SETFA) [12]
  pest or weed control at 125 g/ha: 100%

## CCc1cc(C)cc(CC)c1C1=C(O)[C@@H]2[C@@H]3O[C@@H](C[C@H]3c3cccc(C#N)c3)[C@@H]2C1=O [Example T182]
[1]
  pest or weed control at 250 g/ha: 30%
Avena fatua (AVEFA) [2]
  pest or weed control at 250 g/ha: 50%
[3]
  pest or weed control at 250 g/ha: 80%
[4]
  pest or weed control at 250 g/ha: 90%
Lolium perenne (LOLPE) [5]
  pest or weed control at 250 g/ha: 40%
Setaria faberi (SETFA) [6]
  pest or weed control at 250 g/ha: 50%
[7]
  pest or weed control at 125 g/ha: 100%
Avena fatua (AVEFA) [8]
  pest or weed control at 125 g/ha: 90%
[9]
  pest or weed control at 125 g/ha: 100%
[10]
  pest or weed control at 125 g/ha: 100%
Lolium perenne (LOLPE) [11]
  pest or weed control at 125 g/ha: 80%
Setaria faberi (SETFA) [12]
  pest or weed control at 125 g/ha: 100%

## Cc1cc(C)c(C2=C(O)[C@H]3[C@@H](C2=O)[C@@H]2C=C(CO)[C@@]3(C)O2)c(C)c1 [Example T58]
[1]
  pest or weed control at 250 g/ha: 0%
Avena fatua (AVEFA) [2]
  pest or weed control at 250 g/ha: 10%
[3]
  pest or weed control at 250 g/ha: 0%
[4]
  pest or weed control at 250 g/ha: 60%
Lolium perenne (LOLPE) [5]
  pest or weed control at 250 g/ha: 0%
Setaria faberi (SETFA) [6]
  pest or weed control at 250 g/ha: 0%
[7]
  pest or weed control at 125 g/ha: 0%
Avena fatua (AVEFA) [8]
  pest or weed control at 125 g/ha: 10%
[9]
  pest or weed control at 125 g/ha: 40%
[10]
  pest or weed control at 125 g/ha: 30%
Lolium perenne (LOLPE) [11]
  pest or weed control at 125 g/ha: 0%
Setaria faberi (SETFA) [12]
  pest or weed control at 125 g/ha: 30%

## CCOC[C@]12CC[C@H](O1)[C@@H]1C(=O)C(c3c(CC)cc(C)cc3CC)=C(O)[C@@H]12 [Example T18]
[1]
  pest or weed control at 250 g/ha: 100%
Avena fatua (AVEFA) [2]
  pest or weed control at 250 g/ha: 100%
[3]
  pest or weed control at 250 g/ha: 100%
[4]
  pest or weed control at 250 g/ha: 100%
Lolium perenne (LOLPE) [5]
  pest or weed control at 250 g/ha: 100%
Setaria faberi (SETFA) [6]
  pest or weed control at 250 g/ha: 100%
[7]
  pest or weed control at 125 g/ha: 100%
Avena fatua (AVEFA) [8]
  pest or weed control at 125 g/ha: 100%
[9]
  pest or weed control at 125 g/ha: 100%
[10]
  pest or weed control at 125 g/ha: 100%
Lolium perenne (LOLPE) [11]
  pest or weed control at 125 g/ha: 80%
Setaria faberi (SETFA) [12]
  pest or weed control at 125 g/ha: 100%
